According to patent US12565501B2, “Muscarinic acetylcholine M1 receptor antagonists” (Contineum Therapeutics, Inc., priority 2019, dated 2026):

Target: T1, human M1 receptor (Homo sapiens, UniProt P11229)
T1 sequence (P11229 1-460): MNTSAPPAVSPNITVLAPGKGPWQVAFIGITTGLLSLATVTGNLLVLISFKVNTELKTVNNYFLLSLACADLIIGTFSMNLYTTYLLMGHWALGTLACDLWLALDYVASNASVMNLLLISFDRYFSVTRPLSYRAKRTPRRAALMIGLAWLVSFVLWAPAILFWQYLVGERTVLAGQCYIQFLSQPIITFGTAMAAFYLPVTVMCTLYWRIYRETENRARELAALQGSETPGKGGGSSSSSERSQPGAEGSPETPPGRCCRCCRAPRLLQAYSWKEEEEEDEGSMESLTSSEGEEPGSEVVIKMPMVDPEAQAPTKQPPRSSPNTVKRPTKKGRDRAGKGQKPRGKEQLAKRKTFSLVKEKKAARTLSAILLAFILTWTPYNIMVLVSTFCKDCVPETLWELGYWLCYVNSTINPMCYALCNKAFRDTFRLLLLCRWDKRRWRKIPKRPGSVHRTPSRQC
Assay: In vitro functional assay of muscarinic acetylcholine receptor activity (aequorin calcium flux, reversal of EC80 acetylcholine response)
Format: cell-based
Settings: CHO-K1 cells stably expressing human M1 receptor with aequorin; acetylcholine at EC80; calcium flux (luminescence); read-out: M1 IC50
Description: CHO-K1 cells stably expressing human M1 receptor with aequorin (Perkin Elmer) were grown in F12 media (Gibco) containing 10% FBS (ATCC), 0.4 mg/mL geneticin (Sigma-Aldrich) and 0.25 mg/mL Zeocin (Invitrogen). Cells were grown as per the manufacturer's protocol. For compound testing, cells were grown to confluency and detached gently with Accutase (Sigma-Aldrich) followed by centrifugation for 5 min at 150× g. Cells were then re-suspended in assay buffer (i.e. DMEM/F-12 HEPES without phenol red (Invitrogen) with 0.1% BSA (Sigma-Aldrich)) at a density of 5×10^6 cells/ml. Under sterile conditions, 5 μM coelenterazine (Invitrogen) was added to the cells, mixed, then incubated at room temperature protected from light, with gentle agitation, for 4 h.
Primary compound plates were prepared in 100% DMSO in opaque 96-well plates (VWR) and serially diluted in half log increments. Secondary compound plates were prepared at 3× concentration in assay buffer. Compounds were added to white, clear bottom tissue culture treated 96-well plates (Fisher Scientific). Coelenterazine-loaded cells were then added at 5×10^5 cells/well.
Compounds and cells were incubated at room temperature for 30 min in the dark. Acetylcholine at the EC80 concentration was added and calcium flux measured using a FlexStation 3 (Molecular Devices). Sigmoidal dose-response curves were generated by measuring luminescence over 40 sec and calculating the area under the curve. Dose response curves and IC50 values were generated using Prism (GraphPad). Compounds were tested at a final concentration range of 100 μM to […] in 0.1% DMSO.

**Q.** CCC(OCC(=O)N1CC2CCC(C1)N2c1ccc(C#N)cn1)c1ccc(F)c(Br)c1 (racemic) [Example 216, 6-(3-(2-(1-(3-bromo-4-fluorophenyl)propoxy)acetyl)-3,8-diazabicyclo[3.2.1]octan-8-yl)nicotinonitrile] was tested. Which IC50 did it give?
**A.** < 10 nM

**Q.** For CCC(OCC(=O)N1CC2CCC(C1)N2c1ccc(C#N)cn1)c1cc(F)cc(Br)c1 (racemic) [Example 218, 6-(3-(2-(1-(3-bromo-5-fluorophenyl)propoxy)acetyl)-3,8-diazabicyclo[3.2.1]octan-8-yl)nicotinonitrile], which IC50 is on record?
**A.** < 10 nM

**Q.** N#Cc1ccc(N2C3CCC2CN(C(=O)COC2(c4ccc(F)c(F)c4)CCOC2)C3)nc1 (racemic) [Example 269, 6-(3-(2-((3-(3,4-difluorophenyl)tetrahydrofuran-3-yl)oxy)acetyl)-3,8-diazabicyclo [3.2.1]octan-8-yl)nicotinonitrile] was tested. Which IC50 did it give?
**A.** 100 to 1000 nM

**Q.** CC(OCCC(=O)N1CC2CCC(C1)N2c1ccc(C#N)cn1)c1cccc2ncnn12 (racemic) [Example 308, 6-(3-(3-(1-([1,2,4]triazolo[1,5-a]pyridin-5-yl)ethoxy)propanoyl)-3,8-diazabicyclo[3.2.1]octan-8-yl)nicotinonitrile] was tested. Which IC50 did it give?
**A.** < 10 nM

**Q.** With N#Cc1ccc(N2C3CCC2CN(C(=O)CCOC(c2cccc4ncnn24)C2CC2)C3)nc1 (racemic) [Example 309, 6-(3-(3-([1,2,4]triazolo[1,5-a]pyridin-5-yl(cyclopropyl)methoxy)propanoyl)-3,8-diazabicyclo[3.2.1]octan-8-yl)nicotinonitrile] as the compound, how does the IC50 read?
**A.** < 10 nM

**Q.** For CC(OCCC(=O)N1CC2CCC(C1)N2c1ccc(C#N)cn1)c1cccc2ncccc12 (racemic) [Example 311, 6-(3-(3-(1-(quinolin-5-yl)ethoxy)propanoyl)-3,8-diazabicyclo[3.2.1]octan-8-yl)nicotinonitrile], which IC50 is on record?
**A.** < 10 nM

**Q.** For CC(OCCC(=O)N1CC2CCC(C1)N2c1ccc(C#N)cn1)c1cccc2nccnc12 (racemic) [Example 312, 6-(3-(3-(1-(quinoxalin-5-yl)ethoxy)propanoyl)-3,8-diazabicyclo[3.2.1]octan-8-yl)nicotinonitrile], which IC50 is on record?
**A.** < 10 nM

**Q.** How did the IC50 turn out when COc1cccc(C(CO)CCC(=O)N2CC3CCC(C2)N3c2ccc(C#N)cn2)c1 (racemic) [Example 317, 6-(3-(5-hydroxy-4-(3-methoxyphenyl)pentanoyl)-3,8-diazabicyclo[3.2.1]octan-8-yl)nicotinonitrile] was run?
**A.** < 10 nM

**Q.** How did the IC50 turn out when CC(NCCC(=O)N1CC2CCC(C1)N2c1ccc(C#N)cn1)c1ccc(F)cc1 (stereo in doubt) [Example 7, 6-(3-(3-(((S)-1-(4-fluorophenyl)ethyl)amino)propanoyl)-3,8-diazabicyclo[3.2.1]octan-8-yl)nicotinonitrile] was run?
**A.** 1000 to 10000 nM

**Q.** CC(NCC(=O)N1CC2CCC(C1)N2c1ccc(C#N)cn1)c1ccc(F)cc1F (stereo in doubt) [Example 88, 6-(3-(((S)-1-(2,4-difluorophenyl)ethyl)glycyl)-3,8-diazabicyclo[3.2.1]octan-8-yl)nicotinonitrile] was tested. Which IC50 did it give?
**A.** 1000 to 10000 nM

**Q.** Which IC50 does the source give for CC(COCC(=O)N1CC2CCC(C1)N2c1ccc(C#N)cn1)c1ccccc1 (stereo in doubt) [Example 185, 6-(3-(2-((S)-2-phenylpropoxy)acetyl)-3,8-diazabicyclo[3.2.1]octan-8-yl)nicotinonitrile] here?
**A.** 100 to 1000 nM

**Q.** N#Cc1ccc(N2[C@@H]3CC[C@H]2CN(C(=O)CCNC2(c4ccccc4)CC2)C3)nc1 [Example 2, 6-(3-(3-((1-phenylcyclopropyl)amino)propanoyl)-3,8-diazabicyclo[3.2.1]octan-8-yl)nicotinonitrile] was tested. Which IC50 did it give?
**A.** 100 to 1000 nM

**Q.** With N#Cc1ccc(N2[C@@H]3CC[C@H]2CN(C(=O)CCNC2(c4cccc(F)c4)CC2)C3)nc1 [Example 4, 6-(3-(3-((1-(3-fluorophenyl)cyclopropyl)amino)propanoyl)-3,8-diazabicyclo[3.2.1]octan-8-yl)nicotinonitrile] as the compound, how does the IC50 read?
**A.** 10 to 100 nM

**Q.** How did the IC50 turn out when N#Cc1ccc(N2[C@@H]3CC[C@H]2CN(C(=O)CCNC2(c4ccc(F)cc4)CC2)C3)nc1 [Example 5, 6-(3-(3-((1-(4-fluorophenyl)cyclopropyl)amino)propanoyl)-3,8-diazabicyclo[3.2.1]octan-8-yl)nicotinonitrile] was run?
**A.** 10 to 100 nM

**Q.** Which IC50 does the source give for C[C@H](NCCC(=O)N1C[C@H]2CC[C@@H](C1)N2c1ccc(C#N)cn1)c1ccc(F)cc1 [Example 6, 6-(3-(3-(((S)-1-(4-fluorophenyl)ethyl)amino)propanoyl)-3,8-diazabicyclo[3.2.1]octan-8-yl)nicotinonitrile] here?
**A.** 1000 to 10000 nM

**Q.** Which IC50 does the source give for C[C@H](NCCC(=O)N1C[C@H]2CC[C@@H](C1)N2c1ccc(C#N)cn1)c1ccc(F)c(F)c1 [Example 8, 6-(3-(3-(((S)-1-(3,4-difluorophenyl)ethyl)amino)propanoyl)-3,8-diazabicyclo[3.2.1]octan-8-yl)nicotinonitrile] here?
**A.** 100 to 1000 nM

**Q.** How did the IC50 turn out when C[C@H](NCCC(=O)N1C[C@H]2CC[C@@H](C1)N2c1ccc(C#N)cn1)c1ccc(F)cc1F [Example 9, 6-(3-(3-(((S)-1-(2,4-difluorophenyl)ethyl)amino)propanoyl)-3,8-diazabicyclo[3.2.1]octan-8-yl)nicotinonitrile] was run?
**A.** 100 to 1000 nM

**Q.** For N#Cc1ccc(N2[C@@H]3CC[C@H]2CN(C(=O)CCNC2(c4ccc(Cl)c(Cl)c4)CC2)C3)nc1 [Example 10, 6-(3-(3-((1-(3,4-dichlorophenyl)cyclopropyl)amino)propanoyl)-3,8-diazabicyclo[3.2.1]octan-8-yl)nicotinonitrile], which IC50 is on record?
**A.** < 10 nM

**Q.** For N#Cc1ccc(N2[C@@H]3CC[C@H]2CN(C(=O)CCNC2(c4ccc(F)c(Br)c4)CC2)C3)nc1 [Example 11, 6-(3-(3-((1-(3-bromo-4-fluorophenyl)cyclopropyl)amino)propanoyl)-3,8-diazabicyclo[3.2.1]octan-8-yl)nicotinonitrile], which IC50 is on record?
**A.** < 10 nM

**Q.** N#Cc1ccc(N2[C@@H]3CC[C@H]2CN(C(=O)CCNC2(c4cc(Cl)cc(Br)c4)CC2)C3)nc1 [Example 12, 6-(3-(3-((1-(3-bromo-5-chlorophenyl)cyclopropyl)amino)propanoyl)-3,8-diazabicyclo[3.2.1]octan-8-yl)nicotinonitrile] was tested. Which IC50 did it give?
**A.** 100 to 1000 nM

**Q.** How did the IC50 turn out when N#Cc1ccc(N2C3CCC2CN(C(=O)CCNC2(c4cccc(C#N)c4)CC2)C3)nc1 [Example 13, 6-(3-(3-((1-(3-cyanophenyl)cyclopropyl)amino)propanoyl)-3,8-diazabicyclo[3.2.1]octan-8-yl)nicotinonitrile] was run?
**A.** 10 to 100 nM

**Q.** N#Cc1ccc(C2(NCCC(=O)N3CC4CCC(C3)N4c3ccc(C#N)cn3)CC2)cc1 [Example 14, 6-(3-(3-((1-(4-cyanophenyl)cyclopropyl)amino)propanoyl)-3,8-diazabicyclo[3.2.1]octan-8-yl)nicotinonitrile] was tested. Which IC50 did it give?
**A.** 1000 to 10000 nM

**Q.** Which IC50 does the source give for COc1ccccc1C1(NCCC(=O)N2CC3CCC(C2)N3c2ccc(C#N)cn2)CC1 [Example 15, 6-(3-(3-((1-(2-methoxyphenyl)cyclopropyl)amino)propanoyl)-3,8-diazabicyclo[3.2.1]octan-8-yl)nicotinonitrile] here?
**A.** 10 to 100 nM

**Q.** With COc1cccc(C2(NCCC(=O)N3CC4CCC(C3)N4c3ccc(C#N)cn3)CC2)c1 [Example 16, 6-(3-(3-((1-(3-methoxyphenyl)cyclopropyl)amino)propanoyl)-3,8-diazabicyclo[3.2.1]octan-8-yl)nicotinonitrile] as the compound, how does the IC50 read?
**A.** 10 to 100 nM

**Q.** With COc1ccc(C2(NCCC(=O)N3CC4CCC(C3)N4c3ccc(C#N)cn3)CC2)cc1 [Example 17, 6-(3-(3-((1-(4-methoxyphenyl)cyclopropyl)amino)propanoyl)-3,8-diazabicyclo[3.2.1]octan-8-yl)nicotinonitrile] as the compound, how does the IC50 read?
**A.** 100 to 1000 nM

**Q.** For N#Cc1ccc(N2[C@@H]3CC[C@H]2CN(C(=O)CCNC2(c4ccccn4)CC2)C3)nc1 [Example 18, 6-(3-(3-((1-(pyridin-2-yl)cyclopropyl)amino)propanoyl)-3,8-diazabicyclo[3.2.1]octan-8-yl)nicotinonitrile], which IC50 is on record?
**A.** 1000 to 10000 nM

**Q.** N#Cc1ccc(N2[C@@H]3CC[C@H]2CN(C(=O)CCNC2(c4cccnc4)CC2)C3)nc1 [Example 19, 6-(3-(3-((1-(pyridin-3-yl)cyclopropyl)amino)propanoyl)-3,8-diazabicyclo[3.2.1]octan-8-yl)nicotinonitrile] was tested. Which IC50 did it give?
**A.** 100 to 1000 nM

**Q.** With N#Cc1ccc(N2[C@@H]3CC[C@H]2CN(C(=O)CCNC2(c4ncccc4F)CC2)C3)nc1 [Example 20, 6-(3-(3-((1-(3-fluoropyridin-2-yl)cyclopropyl)amino)propanoyl)-3,8-diazabicyclo[3.2.1]octan-8-yl)nicotinonitrile] as the compound, how does the IC50 read?
**A.** 1000 to 10000 nM
